These are literature values, as cited in patent US20040266797A1, “Use of potent,selective and non toxic c-kit inhibitors for treating tumor angiogensis” (priority 2001, published 2004).

The series deals with tumor growth. The conditions noted are these: inhibiting mast cell degranulation.

Consider `O=C([O-])c1cc(=O)c2c(OCC(O)COc3cccc4oc(C(=O)[O-])cc(=O)c34)cccc2o1.[Na+].[Na+]` [disodium cromoglycate], for which the tumor growth result is “significantly depresse tumor growth”.
